The test concerns Acinetobacter baumannii ATCC17961. Briefly: Antimicrobial susceptibility testing: 90% growth inhibitory concentration (IC90) determination in Iso-Sensitest broth, OD600 growth. In kind it is cell-based. The note with it: Acinetobacter baumannii, ATCC17961, 16 h. Put shortly:
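Serial twofold dilution, 10 points, e.g. 50–0.097 μM final; ~5×10^(5) CFU/ml; 35±2° C, 16 h; kinetic OD600 every 20 min; IC90 from log-phase inhibition.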

[1] abbreviates: strain ATCC 17961, OD600 growth over 16 h, read-out: A. baumannii ATCC 17961 IC90.
The mark [2] stands for this setting: read-out: A. baumannii ATCC 17961 IC90 (uM), strain ATCC 17961, OD600 growth over 16 h.

Counter-ions that a name gives are not always drawn. Like-named read-outs stand apart in the source and are kept apart here.

As usually defined, the IC90 is the concentration needed for an effect of 90%. Turning to `CCc1cc(Nc2nccn3c(-c4cn(CC#N)nc4C(F)F)cnc23)ccc1C(=O)N1CCN(C(=O)C2CCNCC2)CC1` [Example 792, 2-(3-(difluoromethyl)-4-(8-((3-ethyl-4-(4-(piperidine-4-carbonyl)piperazine-1-carbonyl)phenyl)amino)imidazo[1,2-a]pyrazin-3-yl)-1H-pyrazol-1-yl)acetonitrile], the IC90 under setting [1] turned out to be 1.92 µM.
Regarding `CCc1cc(Nc2nccn3c(-c4c[nH]nc4C(F)(F)F)cnc23)ccc1C(=O)NCCCNC(=O)[C@H](C)N` [Example 652, (S)-N-(3-(2-aminopropanamido)propyl)-2-ethyl-4-((3-(3-(trifluoromethyl)-1H-pyrazol-4-yl)imidazo [1,2-a]pyrazin-8-yl)amino)benzamide formate], the IC90 under setting [2] was 0.259 µM.
As to `CCc1cc(Nc2nccn3c(-c4cn(CC(F)F)nc4C(F)F)cnc23)ccc1C(=O)N[C@H]1C[C@@H](NC(=O)[C@@H]2C[C@@H](O)CN2)C1` [Example 552, (2S,4R)-N-((1s,3R)-3-(4-((3-(1-(2,2-difluoroethyl)-3-(difluoromethyl)-1H-pyrazol-4-yl)imidazo[1,2-a]pyrazin-8-yl)amino)-2-ethylbenzamido)cyclobutyl)-4-hydroxypyrrolidine-2-carboxamide], the IC90 under setting [1] was determined as 0.489 µM.
On the same count and under the same terms, the same measure for `CCc1cc(Nc2nccn3c(-c4cn(CC(F)F)nc4C(F)(F)F)cnc23)ccc1C(=O)N1CCC1(CN)CCl` (stereo not drawn) [Example 560, (2-(aminomethyl)-2-(chloromethyl)azetidin-1-yl)(4-((3-(1-(2,2-difluoroethyl)-3-(trifluoromethyl)-1H-pyrazol-4-yl)imidazo[1,2-a]pyrazin-8-yl)amino)-2-ethylphenyl) methanone formate]: 0.836 µM.
For the molecule `CCc1cc(Nc2nccn3c(-c4cn(CCO)nc4C(F)(F)F)cnc23)ccc1C(=O)NCCOCCN` [Example 305, N-[2-(2-aminoethoxy)ethyl]-2-ethyl-4-[[3-[1-(2-hydroxyethyl)-3-(trifluoromethyl)pyrazol-4-yl]imidazo[1,2-a]pyrazin-8-yl]amino]benzamide formate], under setting [2], the IC90 was found to be 0.406 µM.
Consider `Cc1cc(Nc2nccn3c(-c4cn(C)nc4C(F)(F)F)cnc23)ccc1C(=O)N1CCN(C(=O)C2(O)CCNCC2)CC1` [Example 471, formic acid; [4-(4-hydroxypiperidine-4-carbonyl)piperazin-1-yl]-[2-methyl-4-[[3-[1-methyl-3-(trifluoromethyl)pyrazol-4-yl]imidazo[1,2-a]pyrazin-8-yl]amino]phenyl]methanone], for which the 90% effect concentration (IC90) under setting [2] worked out at 1.1 µM.
On the same count and under the same terms, in the case of `CCOC(=O)Cn1cc(-c2cnc3c(Nc4ccc(C(=O)NCCOCCN)c(CC)c4)nccn23)c(C(F)(F)F)n1` [Example 310, ethyl 2-[4-[8-[4-[2-(2-aminoethoxy)ethylcarbamoyl]-3-ethylanilino]imidazo [1,2-a]pyrazin-3-yl]-3-(trifluoromethyl)pyrazol-1-yl]acetate formate] it was 0.719 µM; in that of `N[C@H]1CCN(C(=O)N2CCN(C(=O)c3ccc(Nc4nccn5c(-c6c[nH]nc6C(F)(F)F)cnc45)cc3Cl)CC2)C1` [Example 328, [4-[(3S)-3-aminopyrrolidine-1-carbonyl]piperazin-1-yl]-[2-chloro-4-[[3-[3-(trifluoromethyl)-1H-pyrazol-4-yl]imidazo[1,2-a]pyrazin-8-yl]amino]phenyl]methanone formate], 0.157 µM.
In the case of `Cc1cc(Nc2nccn3c(-c4cn(CC#N)nc4C(F)(F)F)cnc23)ccc1C(=O)NCC(=O)N1CCC(N)CC1` [Example 503, N-[2-(4-amino-1-piperidyl)-2-oxo-ethyl]-4-[[3-[1-(cyanomethyl)-3-(trifluoromethyl)pyrazol-4-yl]imidazo[1,2-a]pyrazin-8-yl]amino]-2-methyl-benzamide formate], the IC90 under setting [1] was determined as 0.233 µM.
On to `C#CC(C)n1cc(-c2cnc3c(Nc4ccc(C(=O)NCCOCCN)c(CC)c4)nccn23)c(C(F)(F)F)n1` (stereo not drawn) [Example 232, N-[2-(2-aminoethoxy)ethyl]-4-[[3-[1-but-3-yn-2-yl-3-(trifluoromethyl)pyrazol-4-yl]imidazo[1,2-a]pyrazin-8-yl]amino]-2-ethylbenzamide formate], for which the IC90 under setting [2] came to 0.124 µM.
For the molecule `CCc1cc(Nc2nccn3c(-c4cn(C(C)C#N)nc4C(F)(F)F)cnc23)ccc1C(=O)NCCOCCN1CCOCC1` (stereo not drawn) [Example 745, 4-((3-(1-(1-cyanoethyl)-3-(trifluoromethyl)-1H-pyrazol-4-yl)imidazo[1,2-a]pyrazin-8-yl)amino)-2-ethyl-N-(2-(2-morpholinoethoxy)ethyl) benzamide formate], the IC90 under setting [1] was 0.569 µM.
Same read-out and setting: in the case of `CNC(=O)c1ccc(Nc2nccn3c(-c4cn(CCC#N)nc4C(F)(F)F)cnc23)cc1Cl` [Example 358, 2-chloro-4-[[3-[1-(2-cyanoethyl)-3-(trifluoromethyl)pyrazol-4-yl]imidazo[1,2-a]pyrazin-8-yl]amino]-N-methylbenzamide] it was 0.189 µM; in that of `NCCOCCNC(=O)c1ccc(Nc2nccn3c(-c4cn(CC5CC5)nc4C(F)(F)F)cnc23)cc1F` [Example 811, N-(2-(2-aminoethoxy)ethyl)-4-((3-(1-(cyclopropyl-methyl)-3-(trifluoromethyl)-1H-pyrazol-4-yl)imidazo[1,2-a]pyrazin-8-yl)amino)-2-fluorobenzamide hydrochloride], 0.23 µM; in that of `CCc1cc(Nc2nccn3c(-c4cn(CC(O)CC)nc4C(F)(F)F)cnc23)ccc1C(=O)NCCOCCN` (stereo not drawn) [Example 268, N-[2-(2-aminoethoxy)ethyl]-2-ethyl-4-[[3-[1-(2-hydroxybutyl)-3-(trifluoromethyl)pyrazol-4-yl]imidazo[1,2-a]pyrazin-8-yl]amino]benzamide], 0.346 µM.
Take `CCc1cc(Nc2nccn3c(-c4c[nH]nc4C(F)(F)F)cnc23)ccc1C(=O)NCCCNC(=O)[C@@H]1C[C@@H](O)CN1` [Example 434, (2S,4R)-N-[3-[[2-ethyl-4-[[3-[3-(trifluoromethyl)-1H-pyrazol-4-yl]imidazo[1,2-a]pyrazin-8-yl]amino]benzoyl]amino]propyl]-4-hydroxypyrrolidine-2-carboxamide formate]: the IC90 under setting [2] was found to be 0.463 µM.
Consider `N#CCn1cc(-c2cnc3c(Nc4ccc(C(=O)N5CCNCC5)c(Cl)c4)nccn23)c(C(F)(F)F)n1` [Example 226, 2-[4-[8-[3-chloro-4-(piperazine-1-carbonyl)anilino]imidazo[1,2-a]pyrazin-3-yl]-3-(trifluoromethyl)pyrazol-1-yl]acetonitrile], for which, under setting [1], the IC90 stood at 0.088 µM.
As for `N#CCn1cc(-c2cnc3c(Nc4ccc(C(=O)N5CCN(CC(=O)NCCN)CC5)c(Cl)c4)nccn23)c(C(F)(F)F)n1` [Example 602, N-(2-aminoethyl)-2-(4-(2-chloro-4-((3-(1-(cyanomethyl)-3-(trifluoromethyl)-1H-pyrazol-4-yl)imidazo[1,2-a]pyrazin-8-yl)amino)benzoyl)piperazin-1-yl)acetamide formate], the IC90 under setting [2] was 0.448 µM.
Turning to `CCc1cc(Nc2nccn3c(-c4cn(Cc5csc(C)n5)nc4C(F)(F)F)cnc23)ccc1C(=O)NCCCNCCCCNCCCN` [Example 82, N-[3-[4-(3-aminopropylamino)butylamino]propyl]-2-ethyl-4-[[3-[1-[(2-methyl-1,3-thiazol-4-yl)methyl]-3-(trifluoromethyl)pyrazol-4-yl]imidazo[1,2-a]pyrazin-8 yl]amino]benzamide hydrochloride], the IC90 under setting [1] came to 1.15 µM.
For `Cc1cc(Nc2nccn3c(-c4cn(CC#N)nc4C(F)(F)F)cnc23)cc(F)c1C(=O)N1CCN(C(=O)CN)CC1` [Example 695, 2-(4-(8-((3-fluoro-4-(4-glycylpiperazine-1-carbonyl)-5-methylphenyl)amino)imidazo[1,2-a]pyrazin-3-yl)-3-(trifluoromethyl)-1H-pyrazol-1-yl) acetonitrile formate], the IC90 under setting [2] stood at 0.362 µM.
With `CCc1cc(Nc2nccn3c(-c4cn(CC#N)nc4C(F)(F)F)cnc23)ccc1C(=O)NCC(=O)N1CC(N)C1` [Example 716, N-[2-(3-aminoazetidin-1-yl)-2-oxo-ethyl]-4-[[3-[1-(cyanomethyl)-3-(trifluoromethyl)pyrazol-4-yl]imidazo[1,2-a]pyrazin-8-yl]amino]-2-ethyl-benzamide formate], under setting [2], the IC90 is 0.426 µM.
In the case of `Cc1ccnc(Cn2cc(-c3cnc4c(Nc5ccc(C(=O)N6CCNCC6)c(Cl)c5)nccn34)c(C(F)(F)F)n2)n1` [Example 161, [2-chloro-4-[[3-[1-[(4-methylpyrimidin-2-yl)methyl]-3-(trifluoromethyl)pyrazol-4-yl]imidazo[1,2-a]pyrazin-8-yl]amino]phenyl]-piperazin-1-ylmethanone formate], under setting [2], the IC90 was determined as 0.764 µM.
The same measure, in the same setting: in the case of `O=C(NC1CNC1)N1CCN(C(=O)c2ccc(Nc3nccn4c(-c5c[nH]nc5C(F)(F)F)cnc34)cc2Cl)CC1` [Example 394, N-(azetidin-3-yl)-4-[2-chloro-4-[[3-[3-(trifluoromethyl)-1H-pyrazol-4-yl]imidazo[1,2-a]pyrazin-8-yl]amino]benzoyl]piperazine-1-carboxamide formate] it was 0.331 µM.
Regarding `C#CCn1cc(-c2cnc3c(Nc4ccc(C(=O)N[C@H](C)CN)c(CC)c4)nccn23)c(C(F)(F)F)n1` [Example 106, N-[(2R)-1-aminopropan-2-yl]-2-ethyl-4-[[3-[1-prop-2-ynyl-3-(trifluoromethyl)pyrazol-4-yl]imidazo[1,2-a]pyrazin-8-yl]amino]benzamide], under setting [1], the IC90 came out at 0.222 µM.
Turning to `N#CCn1cc(-c2cnc3c(Nc4ccc(C(=O)NC5CCC(N)CC5)c(Cl)c4)nccn23)c(C(F)(F)F)n1` (stereo not drawn) [Example 199, N-(4-aminocyclohexyl)-2-chloro-4-[[3-[1-(cyanomethyl)-3-(trifluoromethyl)pyrazol-4-yl]imidazo[1,2-a]pyrazin-8-yl]amino]benzamide formate], the IC90 under setting [2] turned out to be 0.336 µM.

The values above are taken from patent US20230203043A1, “NOVEL IMIDAZOPYRAZINE DERIVATIVES” (Hoffmann-La Roche Inc., priority 2020, published 2023).
